In patent US12076364B2, “Use of interference peptide in preparation of anti-SARS-CoV-2 medicament” (KUNMING INSTITUTE OF ZOOLOGY, CHINESE ACADEMY OF SCIENCES, priority 2020, dated 2024):
Where a SMILES comes first, the peptide text is derived from it. Where no end group is shown, it is not given here.

System: SARS-CoV-2
Details: 48 h; for inhibition of viral infection: 80 μM peptide, Vero E6 cells

Compound | inhibition of viral infection | EC50
C[C@H](NC(=O)[C@@H](N)CCCNC(=N)N)C(=O)NCC(=O)N[C@@H](CCCCN)C(=O)O [RK4, RAGK] (H-RAGK-OH; N-terminus assumed) | 99% | 10 µM
DQTKFPIVNAEL-OH [DL12] | 99% | 5 µM
HPVTGQF [HF7, HPVTGQF] | 89% | 11.4 µM
SDWKTD [SD6, SDWKTD] | 98% | 6.4 µM
